{"source": "paper PMC9184693", "about": "“Molecular mechanism of interaction between fatty acid delta 6 desaturase and acyl-CoA by computational prediction” (AMB Express, 2022)", "target": "T1, MpFADS6 (Micromonas pusilla delta 6 desaturase) (Micromonas pusilla, UniProt C1MMV2)", "T1 construct": "gene MICPUCDRAFT_32578; pYES2-MpFADS6 expressed in Saccharomyces cerevisiae INVSc1; membrane protein, whole-cell biotransformation", "T1 sequence (C1MMV2 entry or part of it)": "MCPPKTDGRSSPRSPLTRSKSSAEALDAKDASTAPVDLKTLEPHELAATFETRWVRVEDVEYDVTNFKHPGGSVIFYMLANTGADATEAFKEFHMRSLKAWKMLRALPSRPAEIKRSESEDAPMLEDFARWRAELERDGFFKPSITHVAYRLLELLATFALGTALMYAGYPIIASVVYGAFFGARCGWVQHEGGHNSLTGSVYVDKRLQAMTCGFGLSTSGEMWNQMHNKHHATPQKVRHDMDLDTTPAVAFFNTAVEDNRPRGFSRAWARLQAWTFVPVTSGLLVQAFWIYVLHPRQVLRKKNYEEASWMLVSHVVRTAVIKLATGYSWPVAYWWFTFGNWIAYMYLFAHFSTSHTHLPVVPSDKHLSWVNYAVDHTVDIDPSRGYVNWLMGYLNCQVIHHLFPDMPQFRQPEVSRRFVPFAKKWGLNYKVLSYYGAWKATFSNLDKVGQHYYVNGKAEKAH", "experiment": "whole-cell biotransformation in yeast, GC-MS of fatty acid methyl esters", "assay_type": "cell-based", "conditions": "product from 0.25 mM ALA fed to cells; formed as the acyl-CoA"}
{"molecule": "CC/C=C\\C/C=C\\C/C=C\\C/C=C\\CCCCC(=O)O", "note": "[stearidonic acid]", "values": [{"measurement": "whole-cell biotransformation in yeast, GC-MS of fatty acid methyl esters", "value": "Desaturase activity is represented by the conversion rate of ALA to SDA"}]}
